Reference: patent US8420777B2, “Compounds that inhibit Hsp90 protein-protein interactions with IAP proteins” (University of Massachusetts, priority 2004, dated 2013)
Peptide text beside a SMILES is read from it. * marks the point of attachment. Cbz = O=C(OCc1ccccc1)*; CH2F = FC*

Key:
HeLa cells [1] = experiment: Apoptosis by hypodiploid DNA content, propidium iodide flow cytometry; format: cell-based, Human; details: 24 hours
Protocol: For determination of apoptosis by hypodiploid DNA content, various tumor cell lines were incubated with increasing concentrations of the cell permeable control scrambled (SEQ ID NO:25) or Survivin peptide (SEQ ID NO:19), harvested after 24 hours (floaters plus attached cells) fixed in 70% ethanol, and stained with 10 μg/ml propidium iodide plus 100 μg/ml RNAse A and 0.05% Triton™ X-100 in PBS, pH 7.4. Cultures were analyzed for DNA content by flow cytometry. For colorimetric quantification of cell viability, an MTT assay was used. Various tumor cell lines were incubated with increasing concentrations of the cell permeable retro-inverso control scrambled P4 or the Survivin-specific P3 peptide, incubated for 24 hours at 37° C. washed twice with Bruffs Media, and 4,5-dimethylthiazol-2-yl)-2,5-diphenyltetrazolium bromide (MTT) (Sigma, St. Louis, Mo.) was added at 5 mg/ml. Decrease in cell viability was analyzed for loss of colorimetric absorption at OD405.
HeLa cells were incubated with the indicated increasing concentrations of the cell permeable Control (scrambled) or Survivin peptide, harvested after 24 hours at 37° C., and analyzed by hypodiploid DNA content by propidium iodide staining and flow cytometry.
HeLa cells were incubated with chemotherapeutic drugs Taxol™ (10 μM) or adriamycin (300 nM), or cell permeable control peptide or the Survivin peptide, harvested after 24 hours, and analyzed for induction of apoptosis by hypodiploid DNA content by flow cytometry.

[2] = test system: HL-60 and THP-1 AML cell lines; experiment: MTT cell viability, short versus full length peptide; format: cell-based; details: 4×10^5 cells
Protocol: FIGS. 29B-29D are graphs depicting killing of AML cells by Survivin peptides. FIG. 29B depicts survivin peptide activity in HL-60 cells, measured by Trypan blue exclusion. FIGS. 29C and 29D depict killing, as measured using MTT, of HL-60 (FIG. 29C) or THP-1 (FIG. 29D) cells by full length Survivin peptide (SEQ ID NO:19), Survivin peptide K79-G83 (SEQ ID NO:20), or scrambled peptide (SEQ ID NO:25 and SEQ ID NO:28).
The activity of a shorter Survivin peptide was also tested in an AML cell line. A shorter cell permeable Survivin peptide was synthesized by fusing the third α-helix of the Antennapedia carrier sequence to the amino-terminus of the Survivin peptide sequence K79-G83 (SEQ ID NO:20). […] The scrambled control peptide ([…]; SEQ ID NO:28) was ineffective (FIGS. 29C, D). For these experiments a higher number of cells was used (4×10^5) to produce a 50% killing efficiency by full length survivin peptide.

[3] = test system: U937, K562, HL60, THP1 AML cell lines; experiment: MTT cell viability in AML cell lines; format: cell-based, human
Protocol: FIG. 30 is a graph depicting killing activity of survivin K79-G83 in AML cells. The indicated human AML cell lines (U937, K562, HL60, and THP1) were incubated with scrambled (SEQ ID NO:28) or Survivin (SEQ ID NO:20) peptides and evaluated for cell viability by MTT.
The effect of the K79-G83 Survivin peptide was characterized in more detail for anti-tumor activity in AML. The K79-L87 (SEQ ID NO:19) and K79-G83 peptides (SEQ ID NO:20) were incubated with AML cells, and cell viability was measured using MTT.

HeLa cells [4] = experiment: Proteasome or caspase inhibitor effect on GA-mediated Survivin/XIAP degradation, Western blotting; format: cell-based, Human; details: for reversal of loss of XIAP expression caused by GA: HeLa cell extracts, GA with inhibitor
Protocol: Extracts from HeLa cells treated with 1 μM GA for 30 hours in the presence or absence of 5 μM of the proteasome inhibitor lactacystin were analyzed for changes in Survivin or β-actin levels by Western blotting. Antibodies to actin were obtained from Sigma. […] Levels of β-actin were unaffected by treatment in this experiment.
HeLa cell extracts were collected after exposure to the indicated concentrations of GA in the absence (None) or in the presence of the proteasome inhibitor, lactacystin or the broad spectrum caspase inhibitor, ZVAD-fink. Loss of XIAP expression in the presence of Hsp90 inhibition by GA is reversed by lactacystin but not ZVAD-fink, as indicated by Western blotting for XIAP depicted in FIG. 5C (* indicates non-specific band).

COc1cccc2c1C(=O)c1c(O)c3c(c(O)c1C2=O)C[C@@](O)(C(=O)CO)C[C@@H]3O[C@H]1C[C@H](N)[C@H](O)[C@H](C)O1 [adriamycin]
loss of cell viability by hypodiploid DNA content (HeLa cells [1]; 300 nM): does not result in significant loss of cell viability

CC(=O)O[C@H]1C(=O)[C@@]2(C)[C@H]([C@H](OC(=O)c3ccccc3)[C@]3(O)C[C@H](OC(=O)[C@H](O)[C@@H](NC(=O)c4ccccc4)c4ccccc4)C(C)=C1C3(C)C)[C@]1(OC(C)=O)CO[C@@H]1C[C@@H]2O [Taxol, paclitaxel]
loss of cell viability by hypodiploid DNA content (HeLa cells [1]; 10 μM): does not result in significant loss of cell viability

RQIKIWFQNRRMKWKKSGKHS (Synthetically generated peptide) [SEQ ID NO:28, scrambled control peptide for K79-G83, reference compound]
reduction of cell viability (MTT) [2]: ineffective | cell viability (MTT), killing of AML cell lines [3]: no effect

CC(=O)N[C@@H](CSC(=O)[C@]1([C@@H](O)C(C)C)NC(=O)[C@H](C)[C@@H]1O)C(=O)O [lactacystin]
Survivin levels following lactacystin and GA treatment (HeLa cells [4]; 1 μM GA for 30 hours, 5 μM lactacystin): at or above the levels of untreated cells | reversal of loss of XIAP expression caused by GA (HeLa cells [4]): reversed

COC(=O)C[C@H](NC(=O)[C@H](C)NC(=O)[C@@H](NC(=O)OCc1ccccc1)C(C)C)C(=O)CF [ZVAD-fink, Z-Val-Ala-Asp (OMe)-CH2F] (Cbz-Val-Ala-Asp(OMe)-CH2F)
reversal of loss of XIAP expression caused by GA (HeLa cells [4]): not
